In US4895589A, “Heterocyclic compounds” (Imperial Chemical Industries PLC, priority 1985, dated 1990):
Where two headings read alike, the source gives them in different places.

Columns and labels:
Spring Barley = test: Intermediate Retardant Test, spring barley; type: in vivo, Spring Barley (Atem/kym); conditions: Hordeum vulgare, 672 h, ~28 days, read-out: Percentage Reduction in Height of Spring Barley (Compared to formulation blank)
Method in brief: (§1)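 Overall spray at 1000 ppm and 4000 ppm (1 and 4 kg ha^-1, 1000 l/ha), giving foliar plus root exposure; rice in flooded paddy pots, barley and apples in 4" pots. Height measured ~28 days after treatment (ligule for cereals, apex for apples), reported as % reduction versus formulation blank.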

Wheat [1] = conditions: WW, 4000 ppm, 2-3 weeks
Method: (§3) The compounds were tested for plant growth regulator activity against up to tweleve plant species for various growth effects relevant to plant growth regulation.
(§4) After spray, the plants were grown in a glasshouse with 25° C. day/22° C. night temperatures and supplementary lighting was supplied when necessary (from mercury vapour lamps), to provide a 16 hour photoperiod. The exception to this were the temperate cereals, wheat and barley, which were grown in 16° C. day 13° C. night temperatures
(§5) After 2-3 weeks in the glasshouse, depending on the time of year, the plants were visually assessed for morphological characteristics. Formulations blanks were used as controls to assess the Plants.

Apples = test: Intermediate Retardant Test, apples; type: in vivo, Apples (Red Delicious); conditions: 672 h, ~28 days, read-out: Percentage Reduction in Height of Apples (Compared to formulation blank)
Method in brief: as §1

Soya = conditions: SY, 4000 ppm, 2-3 weeks
Method: as §3, §4, §5

[2] = system: plant species of Whole Plant Screen (1) or (2); test: Across screen comparison: total retardation relative to paclobutrazol (Whole Plant Screens (1) and (2)); type: in vivo; conditions: compounds of Table I, Table X
Method in brief: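 Compounds, each tested in Whole Plant Screen (1) or (2), are compared by summing retardation scores over all species tested. Each total is expressed as a percentage of the total retardation from paclobutrazol, the standard run in every test.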

Rice [3] = test: Whole Plant Screen (2), rice; type: in vivo, Rice (Ishikari); conditions: RC, 4000 ppm, side-by-side, Table XIII
Method in brief: (§2)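 Foliar spray at 4000 ppm (4 kg/ha in 1000 l/ha) by tracksprayer at the listed leaf stage. Plants grown in glasshouse at 25° C. day/22° C. night, 16° C./13° C. for wheat, 16 h photoperiod. Morphology visually assessed after 2-6 weeks against formulation blanks.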

Rice [4] = test: Intermediate Retardant Test, rice; type: in vivo, Rice (Ishikari); conditions: Oryza sativa, 672 h, ~28 days, read-out: Percentage Reduction in Height of Rice (Compared to formulation blank)
Method in brief: as §1

Barley = test: Whole Plant Screen (2), barley; type: in vivo, Barley (Atem); conditions: BR, 4000 ppm, side-by-side, Table XIII
Dacrylis glomerata = conditions: DA, 4000 ppm, 2-3 weeks
Agrostis tenius = conditions: AT, 4000 ppm, 2-3 weeks
Method: as §3, §4, §5

Apple = test: Whole Plant Screen (2), apple; type: in vivo, Apple (Red Delicious); conditions: AP, 4000 ppm, side-by-side, Table XIII
Method: After 2-6 weeks in the glasshouse, depending on the time of year, the plants were visually assessed for morphological characteristics. Formulation blanks were used as controls to assess the plants.
Compound numbers 1, 5 and 7 (of the present invention) were tested against compounds A, B, C and D (compound Nos. 12, 2, 24 and 50 of Table 1 EP No. 0052424) on whole plant screen (2). The compounds were tested of plant growth regulator activity against five species and for various growth effects relevant to plant growth regulation. The structures are set out in FIG. 1.
The plant species used in this screen are presented in Table XII with the leaf stage at which they were sprayed Each chemical was applied at 4000 ppm (4 kg/ha in a 1000 l/ha field volume) using a tracksprayer and a SS8004E (Teejet) nozzle. […]

Tomato = conditions: TO, 4000 ppm, 2-3 weeks
Wheat [5] = test: Whole Plant Screen (2), wheat; type: in vivo, Wheat (Timmo); conditions: WW, 4000 ppm, side-by-side, Table XIII
Method in brief: as §2

| Structure (SMILES) | height reduction vs blank at 1000 ppm (Spring Barley; Table VIII) [%] | height reduction vs blank at 1000 ppm (Spring Barley; side-by-side, Table XV) [%] | height reduction vs blank at 4000 ppm (Spring Barley; Table VIII) [%] | height reduction vs blank at 4000 ppm (Spring Barley; side-by-side, Table XV) [%] | Retardation score (1-3) with greening (G), apical damage (A), tillering/side shooting (T) (Wheat [1]) | percent reduction in plant height vs formulation blank at 1000 ppm (Apples; side-by-side, Table XVII) [%] | percent reduction in plant height vs formulation blank at 4000 ppm (Apples; Table IX) [%] | percent reduction in plant height vs formulation blank at 4000 ppm (Apples; side-by-side, Table XVII) [%] | Retardation score (1-3) with greening (G), apical damage (A), tillering/side shooting (T) (Soya) | Total Retardation expressed as a percentage of the total retardation caused by paclobutrazol [2] | G = Greening effect (Rice [3]) | I = Interligular or internodal length reduction (Rice [3]) | R = Retardation (Rice [3]) | T = Tillering or side shooting (Rice [3]) | Percent reduction in rice plant height vs formulation blank at 1000 ppm (Rice [4]; Table VII) [%] | Percent reduction in rice plant height vs formulation blank at 1000 ppm (Rice [4]; side-by-side, Table XVI) [%] | Percent reduction in rice plant height vs formulation blank at 4000 ppm (Rice [4]; Table VII) [%] | Percent reduction in rice plant height vs formulation blank at 4000 ppm (Rice [4]; side-by-side, Table XVI) [%] | G = Greening effect (Barley) | Retardation score (1-3) with greening (G), apical damage (A), tillering/side shooting (T) (Dacrylis glomerata) [G] | other results |
| --- | --- | --- | --- | --- | --- | --- | --- | --- | --- | --- | --- | --- | --- | --- | --- | --- | --- | --- | --- | --- | --- |
| CCCCC#CC(O)(Cn1cncn1)C(C)(C)C (stereo not shown) [Compound 1, 2,2-dimethyl-3-hydroxy-3-(hex-1-yne-1-yl)-4-(1,2,4-triazol-1-yl)-butane] | 32.3 | 28 | 60.7 | 62 | 3T | 0 | 51.6 | 41 | 1G | 84.0 % of paclobutrazol | 2 (31-60%) | 3 (61-100%) | 2 (31-60%) | 3 (61-100%) | 24.6 | 31 | 49.9 | 53 | 1 (10-30%) | 2 | T = Tillering or side shooting (Barley): 1 (10-30%); Retardation score (1-3) with greening (G), apical damage (A), tillering/side shooting (T) (Agrostis tenius): 3G; G = Greening effect (Apple): 1 (10-30%); Retardation score (1-3) with greening (G), apical damage (A), tillering/side shooting (T) (Tomato): 2G; T = Tillering or side shooting (Wheat [5]): 1 (10-30%) |
| CC(C)CC#CC(O)(Cn1cncn1)C(C)(C)C (stereo not shown) [Compound 7, 2,2-dimethyl-3-hydroxy-3-(4-methyl-pent-1-yne-1-yl)-4-(1,2,4-triazol-1-yl)-butane] | 33 | 20 | 75.4 | 51 | 3GT | 30 | 31 | 60 | 3GAT | 58.6 % of paclobutrazol | 1 (10-30%) | 3 (61-100%) | 2 (31-60%) | 3 (61-100%) | 11.1 | 27 | 26 | 53 | 1 (10-30%) | 1 | percent reduction in plant height vs formulation blank at 1000 ppm (Apples; Table IX): 15%; I = Interligular or internodal length reduction (Barley): 3 (61-100%); Retardation score (1-3) with greening (G), apical damage (A), tillering/side shooting (T) (Agrostis tenius): 2G; G = Greening effect (Apple): 1 (10-30%); Retardation score (1-3) with greening (G), apical damage (A), tillering/side shooting (T) (Tomato): 2GT; G = Greening effect (Wheat [5]): 1 (10-30%); T = Tillering or side shooting (Wheat [5]): 1 (10-30%) |
